# Laboratory results published in US10760052B2, “Method of inhibiting tau phosphorylation” (priority 2012, dated 2020).
# Biological target: T1, mu opiate receptor (MOR) (Rattus norvegicus, UniProt P33535)
# T1 construct: from tissue; host or cells: striatum (membrane preparation)
# Format: biochemical
# Conditions: for Concentration of FLNA-Binding Compound as Agonist 0.1 μM / Concentration of FLNA-Binding Compound as Agonist 1 μM / Concentration of FLNA-Binding Compound as Agonist 1 μM + BFNA: [35S]GTPγS binding to Gαo in striatal membranes; for Concentration of FLNA-Binding Compound as Agonist 0.1 μM: compound 0.1 μM; for Concentration of FLNA-Binding Compound as Agonist 1 μM: compound 1 μM; for Concentration of FLNA-Binding Compound as Agonist 1 μM + BFNA: compound 1 μM plus 1 μM β-funaltrexamine (MOR antagonist)
# T1 sequence (P33535 whole entry): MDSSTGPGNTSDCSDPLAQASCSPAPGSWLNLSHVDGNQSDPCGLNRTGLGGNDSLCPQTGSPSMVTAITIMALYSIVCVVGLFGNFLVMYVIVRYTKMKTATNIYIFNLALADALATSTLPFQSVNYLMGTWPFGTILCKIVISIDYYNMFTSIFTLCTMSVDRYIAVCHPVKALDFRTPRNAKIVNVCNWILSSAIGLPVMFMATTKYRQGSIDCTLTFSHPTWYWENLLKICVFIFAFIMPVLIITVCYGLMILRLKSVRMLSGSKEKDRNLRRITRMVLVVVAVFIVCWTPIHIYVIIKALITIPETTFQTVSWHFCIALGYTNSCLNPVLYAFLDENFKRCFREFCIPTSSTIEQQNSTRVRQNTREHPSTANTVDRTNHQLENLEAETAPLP
SMILES,% DAMGO (0.1 μM) [%],% DAMGO (1 μM) [%],% DAMGO + BFNA [%],Concentration of FLNA-Binding Compound as Agonist 0.1 μM [%],Concentration of FLNA-Binding Compound as Agonist 1 μM [%],Concentration of FLNA-Binding Compound as Agonist 1 μM + BFNA [%]
COc1cccc(OC)c1C(=O)CC1c2c(cc3c(c2OC)OCO3)CC[N+]1(C)C (stereo not drawn) [Compound B0023],99.4,100.1,81.8,166.1,245.3,28.4
COc1ccc(C(=O)CC2c3c(cc4c(c3OC)OCO4)CC[N+]2(C)C)cc1 (stereo not drawn) [Compound B0024],93.2,116.7,58.2,155.8,285.9,20.2
COc1ccccc1C(=O)CC1c2c(cc3c(c2OC)OCO3)CC[N+]1(C)C (stereo not drawn) [Compound B0025],96.3,86.8,211.8,159.6,234.6,137.7
COc1ccc(C(=O)CC2c3c(cc4c(c3OC)OCO4)CC[N+]2(C)C)cc1OC (stereo not drawn) [Compound B0026],88.8,87.4,55.3,152.0,233.3,28.8
COc1ccc(C(=O)CC2c3c(cc4c(c3OC)OCO4)CC[N+]2(C)C)c(F)c1 (stereo not drawn) [Compound B0027],82.3,100.0,41.5,140.9,266.9,21.6
COc1c2c(cc3c1C(CC(=O)CCc1ccc(O)cc1)[N+](C)(C)CC3)OCO2 (stereo not drawn) [Compound B0028],103.5,131.0,125.3,199.1,357.7,55.0
COc1ccc(CC(=O)CC2c3c(cc4c(c3OC)OCO4)CC[N+]2(C)C)c(OC)c1 (stereo not drawn) [Compound B0029],89.4,77.0,40.1,171.9,210.3,17.6
COc1ccccc1CC(O)CC1c2c(cc3c(c2OC)OCO3)CCN1C (stereo not drawn) [Compound B0030],62.6,103.4,172.9,107.2,276.1,90.1
COc1c2c(cc3c1C(CC(=O)Cc1ccccc1C)[N+](C)(C)CC3)OCO2 (stereo not drawn) [Compound B0031],109.6,99.6,65.6,210.8,272.0,28.8
COc1ccccc1CC(O)CC1c2c(cc3c(c2OC)OCO3)CC[N+]1(C)C (stereo not drawn) [Compound B0032],115.0,109.0,35.5,221.1,297.7,15.6
COc1ccc(C(=O)CC2c3c(cc4c(c3OC)OCO4)CC[N+]2(C)C)c(O)c1 (stereo not drawn) [Compound B0033],77.6,69.2,95.4,149.3,188.9,41.9
COc1cccc(CCC(=O)CC2c3c(cc4c(c3OC)OCO4)CC[N+]2(C)C)c1 (stereo not drawn) [Compound B0034],71.6,88.1,80.2,122.5,235.2,41.8
COc1cc(OC)cc(C(=O)CC2c3c(cc4c(c3OC)OCO4)CC[N+]2(C)C)c1 (stereo not drawn) [Compound B0035],109.8,93.2,142.4,188.0,248.7,74.2
COc1cccc(OC)c1CC(=O)CC1c2c(cc3c(c2OC)OCO3)CC[N+]1(C)C (stereo not drawn) [Compound B0036],39.2,52.1,199.7,61.4,120.6,65.1
COc1cc(C(=O)CC2c3c(cc4c(c3OC)OCO4)CC[N+]2(C)C)cc(OC)c1OC (stereo not drawn) [Compound B0037],76.5,80.4,325.8,119.8,186.0,106.2
COc1cccc(CC(=O)CC2c3c(cc4c(c3OC)OCO4)CC[N+]2(C)C)c1OC (stereo not drawn) [Compound B0038],94.2,88.7,359.2,147.5,205.5,117.1
COCOc1ccc(CCC(=O)CC2c3c(cc4c(c3OC)OCO4)CC[N+]2(C)C)cc1 (stereo not drawn) [Compound B0040],93.2,105.1,169.6,146.0,243.3,55.3
COCOc1ccc(C(=O)CC2c3c(cc4c(c3OC)OCO4)CC[N+]2(C)C)cc1C (stereo not drawn) [Compound B0041],39.3,47.2,128.5,61.6,109.3,41.9
COc1ccc(CCC(=O)CC2c3c(cc4c(c3OC)OCO4)CC[N+]2(C)C)cc1OC (stereo not drawn) [Compound B0042],39.6,42.3,163.9,69.9,107.5,43.1
COc1ccc(CCC(=O)CC2c3c(cc4c(c3OC)OCO4)CC[N+]2(C)C)c(OC)c1 (stereo not drawn) [Compound B0043],42.4,97.6,632.7,74.8,248.1,166.4
COc1ccc(OC)c(CCC(=O)CC2c3c(cc4c(c3OC)OCO4)CC[N+]2(C)C)c1 (stereo not drawn) [Compound B0044],49.4,66.9,511.8,87.3,170.0,134.6
COc1ccccc1CCC(=O)CC1c2c(cc3c(c2OC)OCO3)CC[N+]1(C)C (stereo not drawn) [Compound B0045],82.6,83.4,257.1,129.3,193.1,83.8
COc1ccc(CCC(=O)CC2c3c(cc4c(c3OC)OCO4)CCN2C)cc1 (stereo not drawn) [Compound B0047],106.3,92.6,260.1,187.8,235.6,68.4
COc1ccc(CCC(O)CC2c3c(cc4c(c3OC)OCO4)CCN2C)cc1 (stereo not drawn) [Compound B0048],104.8,87.8,298.5,185.1,223.4,78.5
COc1ccc(CCC(O)CC2c3c(cc4c(c3OC)OCO4)CC[N+]2(C)C)cc1 (stereo not drawn) [Compound B0049],102.8,143.1,506.5,181.6,364.0,133.2
COc1c2c(cc3c1C(CC(=O)CCc1ccccc1)N(C)CC3)OCO2 (stereo not drawn) [Compound B0050],58.1,96.4,294.0,98.2,211.0,48.8
COc1c2c(cc3c1C(CC(O)CCc1ccccc1)N(C)CC3)OCO2 (stereo not drawn) [Compound B0051],68.4,76.7,263.9,115.6,167.9,43.8
COc1c2c(cc3c1C(CC(O)CCc1ccccc1)[N+](C)(C)CC3)OCO2 (stereo not drawn) [Compound B0052],58.1,69.3,246.4,98.2,151.7,40.9
